Reference: US8410163B2, “Substituted 4-amino-5-benzoyl-2-(phenylamino)thiophene-3-carbonitriles and substituted 4-amino-5-benzoyl-2-(phenylamino)thiophene-3-carboxamides as tubulin polymerization inhibitors” (Telik, Inc., priority 2009, dated 2013)
Like-named read-outs stand apart in the source and are kept apart here.

Assays:
[1] = system: A549 (human lung adenocarcinoma); assay: Cytotoxicity assay (CellTiter-Glo), A549; format: cell-based; details: 72 h, A549 cells, three days culture, rounded to 1 significant figure
Description: (§1) The cell lines A549 (human lung adenocarcinoma), OVCAR-3 (human ovarian carcinoma), HL60 (human promyelocytic leukemia), DLD1 (human colon adenocarcinoma) and HCT116 (human colon carcinoma) were obtained from the American Type Culture Collection, Manassas, Va., U.S.A. All products were used in accordance with manufacturer's directions. The histone phosphorylation (p-H3) assay was conducted in duplicate and the cytotoxicity assays were conducted in triplicate, in each case with solvent control.
(§2) Log-phase cells were trypsinized, collected by centrifugation, and resuspended in a small volume of fresh medium, and the density of viable cells was determined following Trypan Blue staining. Cells were diluted in fresh media, the test compounds (concentrations between 0.1 μM and 200 μM, dissolved in DMSO, 50 μL) added immediately after dilution to achieve a final DMSO concentration of 0.5%, then the suspensions added at 150 μL/well to 96-well plates, and incubated overnight to allow attachment in the case of adherent cells. The cells were cultured for three days (about three doubling times). The cells were then collected by centrifugation, and 100 μL of the culture supernatant was replaced by the CellTiter-Glo reagent. After incubation for 15 minutes at room temperature, the plate was read with a luminometer. […] The table gives cytotoxicity IC50s in μM, rounded to 1 significant figure.

[2] = system: HL60 (human promyelocytic leukemia); assay: Cytotoxicity assay (CellTiter-Glo), HL-60; format: cell-based; details: 72 h, HL-60 cells, three days culture, rounded to 1 significant figure
Description: as §1, §2

[3] = system: OVCAR-3 (human ovarian carcinoma); assay: Cytotoxicity assay (CellTiter-Glo), OVCAR-3; format: cell-based; details: 72 h, OVCAR-3 cells, three days culture, rounded to 1 significant figure
Description: as §1, §2

tubulin = assay: Inhibition of tubulin polymerization, cell-free fluorescence assay; format: biochemical
[4] = system: HCT116 (human colon carcinoma); assay: Cytotoxicity assay (CellTiter-Glo), HCT116; format: cell-based; details: HCT-116, 72 h, HCT116 cells, three days culture, rounded to 1 significant figure
Description: as §1, §2

[5] = system: HL60 (human promyelocytic leukemia) xenograft; assay: HL60 xenograft assay, oral administration; format: in vivo; details: Mus musculus, HL-60, po, nu/nu mice, read-out: inhibition of tumor growth compared to vehicle
Description: (§3) Male athymic nu/nu mice, 6-8 weeks old (about 20 g), were implanted subcutaneously in the right fore flank with about 1×10^7 cells of the HL60 (human promyelocytic leukemia) line that had been grown in antibiotic-free medium for at least two passages. About 6 days after tumor implantation, when the tumor weight was about 50-250 mg, the mice were assigned to treatment groups. Test compounds were suspended at 20 mg/mL in 0.55 wt. % aqueous carboxymethylcellulose. Groups of mice were treated with compounds 2A, 9A, and 12A at 200 mg/Kg by gavage once/day on days 1-5 and 8-10 from the start of treatment, with vehicle control. Tumor growth inhibition was measured on the last day of treatment.
The experiment was conducted generally as described in In vivo Example 1. Groups of mice were treated with compounds 5A, 6A, 7A, 8A, and 10A at 200 mg/Kg by gavage once/day on days 1-5 and 8-10 from the start of treatment, with vehicle control. Tumor growth inhibition was measured the day after the last day of treatment.

[6] = system: DLD1 (human colon adenocarcinoma); assay: Cytotoxicity assay (CellTiter-Glo), DLD1; format: cell-based; details: DLD-1, 72 h, DLD1 cells, three days culture, rounded to 1 significant figure
Description: as §1, §2

[7] = system: HCT116 (human colon carcinoma) xenograft; assay: HCT116 xenograft assay, oral administration; format: in vivo; details: nu/nu mice, 200 mg/Kg by gavage once/day days 1-5 and 8-12, measured 2 days after the last day of treatment
Description: as §3, with “the HCT116” for “the HL60”, “(human colon carcinoma)” for “(human promyelocytic leukemia)”, “About 14-21” for “About 6”, “tumor transplantation,” for “tumor implantation,”, “and 8-12” for “and 8-10”, “measured 2 days after” for “measured on”

[8] = system: P388 and P388/ADR (doxorubicin-resistant) cells; assay: Cross-resistance, cytotoxicity in P388 and P388/ADR cells; format: cell-based, mouse; details: cytotoxicity in P388/ADR (doxorubicin-resistant) versus P388 cells
Description: Compounds 2A, 9A, and 12A were tested for cross-resistance in the P388 (mouse leukemia) cell line, by assaying its cytotoxicity in both P388 and P388/ADR (doxorubicin-resistant) cells. […] Several of the more cytotoxic compounds of formula A were tested and found not to be substrates for P-glycoprotein, an efflux pump commonly associated with multidrug-resistance in cancer cells.

[9] = 200 mg/Kg by gavage once/day days 1-5 and 8-10, measured on the last day of treatment (In vivo Example 1)
[10] = 200 mg/Kg by gavage once/day days 1-5 and 8-10, measured the day after the last day of treatment (In vivo Example 3)

| Structure (SMILES) | IC50 [1] [µM] | IC50 [2] [µM] | further results |
| --- | --- | --- | --- |
| N#Cc1c(Nc2ccc3c(c2)OCO3)sc(C(=O)c2ccc(F)cc2)c1N [Compound 33A] | 1 | – | – |
| COc1ccc(Nc2sc(C(=O)c3ccc(OC)cc3)c(N)c2C#N)cc1 [Compound 12A] | 0.05 | 0.04 | IC50 [3]: 0.03 µM; inhibition of tubulin polymerization (cell-free) (tubulin): inhibition of tubulin polymerization; IC50 [4]: 0.04 µM; inhibition in vivo at 200 mg/kg [5, 9]: 66%; IC50 [6]: 0.04 µM; inhibition of tumor growth compared to vehicle [7]: 46% |
| N#Cc1c(Nc2ccc3c(c2)OCO3)sc(C(=O)c2ccc(Cl)cc2)c1N [Compound 24A] | 0.3 | 0.08 | – |
| COc1cc2c(c(OC)c1OC)-c1ccc(OC)c(=O)cc1[C@@H](NC(C)=O)CC2 [colchicine] | – | – | resistance ratio [8]: 70 fold |
| NC(=O)c1c(Nc2ccc3c(c2)OCO3)sc(C(=O)c2ccc(Cl)cc2)c1N [Compound 27A, 4-amino-2-(1,3-benzodioxol-5-ylamino)-5-(4-chlorobenzoyl)thiophene-3-carboxamide] | 0.6 | 0.2 | IC50 [3]: 0.3 µM; IC50 [4]: 0.6 µM |
| CC[C@]1(O)C[C@@H]2CN(CCc3c([nH]c4ccccc34)[C@@](C(=O)OC)(c3cc4c(cc3OC)N(C)[C@H]3[C@@](O)(C(=O)OC)[C@H](OC(C)=O)[C@]5(CC)C=CCN6CC[C@]43[C@@H]65)C2)C1 [vinblastine] | – | – | resistance ratio [8]: 50 fold |
| Cc1ccc(Nc2sc(C(=O)c3ccc(Cl)cc3)c(N)c2C#N)cc1 [Compound 14A] | 0.1 | 0.07 | inhibition of tubulin polymerization (cell-free) (tubulin): inhibition of tubulin polymerization; IC50 [4]: 0.08 µM |
| N#Cc1c(Nc2ccc([N+](=O)[O-])cc2)sc(C(=O)c2ccc(Cl)cc2)c1N [Compound 37A] | 2 | – | – |
| COc1ccc(C(=O)c2sc(Nc3ccc(OC)cc3OC)c(C#N)c2N)cc1 [Compound 32A] | 1 | – | – |
| CCN(CC)c1ccc(C(=O)c2sc(Nc3ccc(OC)c(OC)c3)c(C#N)c2N)cc1 [Compound 11A] | 0.05 | – | – |
| CCOc1ccc(Nc2sc(C(=O)c3ccc(OC)cc3OC)c(N)c2C#N)cc1 [Compound 6A, 4-amino-5-(2,4-dimethoxybenzoyl)-2-[(4-ethoxyphenyl)amino]thiophene-3-carbonitrile] | 0.03 | 0.05 | IC50 [4]: 0.03 µM; inhibition in vivo at 200 mg/kg [5, 10]: 89% |
| COc1ccc(Nc2sc(C(=O)c3ccc(OC)cc3)c(N)c2C(N)=O)cc1 [Compound 8A] | 0.04 | 0.03 | IC50 [3]: 0.01 µM; inhibition in vivo at 200 mg/kg [5, 10]: 10%; IC50 [6]: 0.007 µM |
| COC(=O)c1ccc(Nc2sc(C(=O)c3ccc(Cl)cc3)c(N)c2C#N)cc1 [Compound 30A] | 1 | – | – |
| CC(C)c1ccc(Nc2sc(C(=O)c3ccc(Cl)cc3)c(N)c2C#N)cc1 [Compound 29A] | 0.8 | – | – |
| COc1cccc(C(=O)c2sc(Nc3ccc4c(c3)OCO4)c(C#N)c2N)c1 [Compound 25A] | 0.5 | – | – |
| COc1ccc(Nc2sc(C(=O)c3ccc(Cl)cc3)c(N)c2C#N)cc1OC [Compound 5A] | 0.02 | 0.02 | IC50 [3]: 0.02 µM; IC50 [4]: 0.02 µM; inhibition in vivo at 200 mg/kg [5, 10]: 45%; IC50 [6]: 0.02 µM |
| COc1cccc2c1C(=O)c1c(O)c3c(c(O)c1C2=O)C[C@@](O)(C(=O)CO)C[C@@H]3O[C@H]1C[C@H](N)[C@H](O)[C@H](C)O1 [doxorubicin] | – | – | resistance ratio [8]: 260 fold |
| N#Cc1c(Nc2ccc3c(c2)OCO3)sc(C(=O)c2cccc(Br)c2)c1N [Compound 41A] | 2 | – | – |
| COc1ccc(Nc2sc(C(=O)c3ccc(OC)cc3OC)c(N)c2C#N)c(OC)c1 [Compound 22A] | 0.2 | – | – |
| CCOc1ccc(Nc2sc(C(=O)c3ccc(Cl)cc3)c(N)c2C#N)cc1 [Compound 4A] | 0.02 | 0.04 | IC50 [3]: 0.03 µM; IC50 [4]: 0.09 µM; IC50 [6]: 0.03 µM |

| Structure (SMILES) | IC50 [1] [µM] | IC50 [2] [µM] | further results |
| --- | --- | --- | --- |
| COc1ccc(C(=O)c2sc(Nc3ccc4c(c3)OCO4)c(C#N)c2N)cc1 [Compound 10A] | 0.04 | 0.04 | IC50 [3]: 0.04 µM; inhibition in vivo at 200 mg/kg [5, 10]: 67%; IC50 [6]: 0.03 µM |
| CN(C)CCOc1ccc(Nc2sc(C(=O)c3ccc(Cl)cc3)c(N)c2C#N)cc1 [Compound 36A] | 1 | – | – |
| CCOc1ccc(Nc2sc(C(=O)c3ccc(Cl)cc3)c(N)c2C(N)=O)cc1 [Compound 13A] | 0.06 | 0.03 | – |
| COc1ccc(C(=O)c2sc(Nc3ccc(OC)c(OC)c3)c(C#N)c2N)cc1 [Compound 28A] | 0.7 | – | – |
| Cc1ccc(C(=O)c2sc(Nc3ccc4c(c3)OCO4)c(C#N)c2N)cc1 [Compound 19A] | 0.2 | – | – |
| N#Cc1c(Nc2ccc3c(c2)OCO3)sc(C(=O)c2ccc(Br)cc2)c1N [Compound 23A] | 0.3 | – | – |
| COc1ccc(Nc2sc(C(=O)c3ccc(OCCN(C)C)cc3)c(N)c2C#N)cc1 [Compound 39A] | 2 | – | – |
| COc1ccc(Nc2sc(C(=O)c3ccc(Cl)cc3)c(N)c2C(N)=O)cc1 [Compound 1A, 4-amino-5-(4-chlorobenzoyl)-2-[(4-methoxyphenyl)amino]thiophene-3-carboxamide] | 0.01 | 0.01 | IC50 [3]: 0.01 µM; IC50 [4]: 0.01 µM; IC50 [6]: 0.007 µM |
| COc1ccc(Nc2sc(C(=O)c3ccc(Br)cc3)c(N)c2C#N)cc1 [Compound 3A] | 0.02 | – | – |
| N#Cc1c(Nc2ccc3c(c2)OCO3)sc(C(=O)c2cccc(Cl)c2)c1N [Compound 35A] | 1 | – | – |
| N#Cc1c(Nc2ccc(F)cc2)sc(C(=O)c2ccc(Cl)cc2)c1N [Compound 38A] | 2 | – | – |
| CCN(CC)c1ccc(C(=O)c2sc(Nc3ccc(OC)cc3OC)c(C#N)c2N)cc1 [Compound 26A] | 0.5 | – | – |
| CCN(CC)c1ccc(C(=O)c2sc(Nc3ccc4c(c3)OCO4)c(C#N)c2N)cc1 [Compound 9A] | 0.04 | 0.04 | IC50 [3]: 0.02 µM; inhibition of tubulin polymerization (cell-free) (tubulin): inhibition of tubulin polymerization; IC50 [4]: 0.04 µM; inhibition in vivo at 200 mg/kg [5, 9]: 43%; IC50 [6]: 0.02 µM; inhibition of tumor growth compared to vehicle [7]: 36% |
| CCOc1ccc(Nc2sc(C(=O)c3ccc(OC)cc3)c(N)c2C#N)cc1 [Compound 17A] | 0.1 | 0.1 | – |
| COc1ccccc1C(=O)c1sc(Nc2ccc3c(c2)OCO3)c(C#N)c1N [Compound 21A] | 0.2 | – | inhibition of tubulin polymerization (cell-free) (tubulin): inhibition of tubulin polymerization |
| N#Cc1ccc(C(=O)c2sc(Nc3ccc4c(c3)OCO4)c(C#N)c2N)cc1 [Compound 20A] | 0.2 | – | – |
| N#Cc1cccc(C(=O)c2sc(Nc3ccc4c(c3)OCO4)c(C#N)c2N)c1 [Compound 34A] | 1 | – | – |
| N#Cc1c(Nc2ccc(C(F)(F)F)cc2)sc(C(=O)c2ccc(Cl)cc2)c1N [Compound 31A] | 1 | – | – |
| COc1ccc(C(=O)c2sc(Nc3ccc4c(c3)OCO4)c(C#N)c2N)cc1OC [Compound 16A] | 0.1 | 0.06 | – |
